According to PubChem BioAssay (NCI):
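Interpolation was linear, between the two tested concentrations surrounding the appropriate level; five concentrations were tested over 48 hours in 96-well plates. GI50 marks 50% less growth. Definition used: TGI = concentration required for complete inhibition of growth.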

Key:
Assay in all cases: NCI tumour cell line growth inhibition, 48 h
MDA-MB-231 breast = test system: MDA-MB-231 breast
CAKI-1 renal = test system: CAKI-1 renal
UACC-257 melanoma = test system: UACC-257 melanoma
OVCAR-5 ovarian = test system: OVCAR-5 ovarian
TK-10 renal = test system: TK-10 renal
NCI/ADR-RES ovarian = test system: NCI/ADR-RES ovarian
T-47D breast = test system: T-47D breast
SK-MEL-5 melanoma = test system: SK-MEL-5 melanoma
HT29 colon = test system: HT29 colon
SNB-75 CNS = test system: SNB-75 CNS
OVCAR-8 ovarian = test system: OVCAR-8 ovarian
EKVX NSCLC = test system: EKVX NSCLC
MOLT-4 leukemia = test system: MOLT-4 leukemia
M14 melanoma = test system: M14 melanoma
OVCAR-3 ovarian = test system: OVCAR-3 ovarian
SK-MEL-2 melanoma = test system: SK-MEL-2 melanoma
HOP-92 NSCLC = test system: HOP-92 NSCLC
MDA-MB-435 = test system: MDA-MB-435
SF-539 CNS = test system: SF-539 CNS
IGROV1 ovarian = test system: IGROV1 ovarian
HCT-116 colon = test system: HCT-116 colon
BT-549 breast = test system: BT-549 breast
LOX IMVI melanoma = test system: LOX IMVI melanoma
MALME-3M melanoma = test system: MALME-3M melanoma
RXF 393 renal = test system: RXF 393 renal
MCF7 breast = test system: MCF7 breast
A498 renal = test system: A498 renal
NCI-H23 lung = test system: NCI-H23 lung
SF-295 CNS = test system: SF-295 CNS
HL-60(TB) leukemia = test system: HL-60(TB) leukemia
SNB-19 CNS = test system: SNB-19 CNS
PC-3 prostate = test system: PC-3 prostate
OVCAR-4 ovarian = test system: OVCAR-4 ovarian
SK-MEL-28 melanoma = test system: SK-MEL-28 melanoma
CCRF-CEM leukemia = test system: CCRF-CEM leukemia
KM12 colon = test system: KM12 colon
SW-620 colon = test system: SW-620 colon
DU-145 prostate = test system: DU-145 prostate
HOP-62 NSCLC = test system: HOP-62 NSCLC
RPMI-8226 leukemia = test system: RPMI-8226 leukemia
SF-268 CNS = test system: SF-268 CNS
COLO 205 colon = test system: COLO 205 colon
UO-31 renal = test system: UO-31 renal
U251 CNS = test system: U251 CNS
786-0 renal = test system: 786-0 renal
NCI-H226 lung = test system: NCI-H226 lung
NCI-H460 lung = test system: NCI-H460 lung
A549 NSCLC = test system: A549 NSCLC
HCC-2998 colon = test system: HCC-2998 colon
UACC-62 melanoma = test system: UACC-62 melanoma
HCT-15 colon = test system: HCT-15 colon
HS 578T breast = test system: HS 578T breast
ACHN renal = test system: ACHN renal
SK-OV-3 ovarian = test system: SK-OV-3 ovarian
SN12C renal = test system: SN12C renal
NCI-H522 lung = test system: NCI-H522 lung
K-562 leukemia = test system: K-562 leukemia

COc1ccc(Sc2[nH]c(C=O)c3ccccc23)cc1
GI50 (MDA-MB-231 breast): 13.4 µM
TGI (MDA-MB-231 breast): 34.2 µM
GI50 (CAKI-1 renal): 16.7 µM
TGI (CAKI-1 renal): 84 µM
GI50 (UACC-257 melanoma): 20.1 µM
TGI (UACC-257 melanoma): 49.6 µM
GI50 (OVCAR-5 ovarian): 6.1 µM
TGI (OVCAR-5 ovarian): 28.3 µM
GI50 (TK-10 renal): 10.6 µM
TGI (TK-10 renal): 45.1 µM
GI50 (NCI/ADR-RES ovarian): 11.6 µM
TGI (NCI/ADR-RES ovarian): 47.5 µM
GI50 (T-47D breast): 9.08 µM
TGI (T-47D breast): 30.2 µM
GI50 (SK-MEL-5 melanoma): 12.9 µM
TGI (SK-MEL-5 melanoma): 25.5 µM
GI50 (HT29 colon): 4.02 µM
TGI (HT29 colon): 14.1 µM
GI50 (SNB-75 CNS): 11.9 µM
TGI (SNB-75 CNS): 25.5 µM
GI50 (OVCAR-8 ovarian): 14.1 µM
TGI (OVCAR-8 ovarian): 32 µM
GI50 (EKVX NSCLC): 5.49 µM
TGI (EKVX NSCLC): 34.1 µM
GI50 (MOLT-4 leukemia): 1.31 µM
TGI (MOLT-4 leukemia): 19 µM
GI50 (M14 melanoma): 12.4 µM
TGI (M14 melanoma): 26 µM
GI50 (OVCAR-3 ovarian): 11.9 µM
TGI (OVCAR-3 ovarian): 24.2 µM
GI50 (SK-MEL-2 melanoma): 13.6 µM
TGI (SK-MEL-2 melanoma): 32.4 µM
GI50 (HOP-92 NSCLC): 5.52 µM
TGI (HOP-92 NSCLC): 21 µM
GI50 (MDA-MB-435): 2.68 µM
TGI (MDA-MB-435): 11.5 µM
GI50 (SF-539 CNS): 10.9 µM
TGI (SF-539 CNS): 23 µM
GI50 (IGROV1 ovarian): 13.8 µM
TGI (IGROV1 ovarian): 37.6 µM
GI50 (HCT-116 colon): 12.7 µM
TGI (HCT-116 colon): 25.3 µM
GI50 (BT-549 breast): 2.03 µM
TGI (BT-549 breast): 12.1 µM
GI50 (LOX IMVI melanoma): 12.3 µM
TGI (LOX IMVI melanoma): 25.4 µM
GI50 (MALME-3M melanoma): 14.2 µM
TGI (MALME-3M melanoma): 38.8 µM
GI50 (RXF 393 renal): 10.7 µM
TGI (RXF 393 renal): 33.3 µM
GI50 (MCF7 breast): 12.8 µM
TGI (MCF7 breast): 30.2 µM
GI50 (A498 renal): 3.44 µM
TGI (A498 renal): 23.5 µM
GI50 (NCI-H23 lung): 14.3 µM
TGI (NCI-H23 lung): 32.3 µM
GI50 (SF-295 CNS): 9.16 µM
TGI (SF-295 CNS): 26.9 µM
GI50 (HL-60(TB) leukemia): 5.09 µM
TGI (HL-60(TB) leukemia): 28.4 µM
GI50 (SNB-19 CNS): 4.78 µM
TGI (SNB-19 CNS): 18.5 µM
GI50 (PC-3 prostate): 13.3 µM
TGI (PC-3 prostate): 41.4 µM
GI50 (OVCAR-4 ovarian): 22.4 µM
TGI (OVCAR-4 ovarian): 61.7 µM
GI50 (SK-MEL-28 melanoma): 15.1 µM
TGI (SK-MEL-28 melanoma): 30 µM
GI50 (CCRF-CEM leukemia): 5.66 µM
TGI (CCRF-CEM leukemia): 22.3 µM
GI50 (KM12 colon): 3.62 µM
TGI (KM12 colon): 13.7 µM
GI50 (SW-620 colon): 3.72 µM
TGI (SW-620 colon): 16.4 µM
GI50 (DU-145 prostate): 6.25 µM
TGI (DU-145 prostate): 21.6 µM
GI50 (HOP-62 NSCLC): 15.5 µM
TGI (HOP-62 NSCLC): 29.7 µM
GI50 (RPMI-8226 leukemia): 7.13 µM
TGI (RPMI-8226 leukemia): 26 µM
GI50 (SF-268 CNS): 14.9 µM
TGI (SF-268 CNS): 31.2 µM
GI50 (COLO 205 colon): 0.664 µM
TGI (COLO 205 colon): 6 µM
GI50 (UO-31 renal): 5.11 µM
TGI (UO-31 renal): 22.2 µM
GI50 (U251 CNS): 12.3 µM
TGI (U251 CNS): 24.8 µM
GI50 (786-0 renal): 12 µM
TGI (786-0 renal): 26.1 µM
GI50 (NCI-H226 lung): 2.62 µM
TGI (NCI-H226 lung): 16.8 µM
GI50 (NCI-H460 lung): 2.94 µM
TGI (NCI-H460 lung): 11.2 µM
GI50 (A549 NSCLC): 13.3 µM
TGI (A549 NSCLC): > 100 µM
GI50 (HCC-2998 colon): 5.44 µM
TGI (HCC-2998 colon): 18.2 µM
GI50 (UACC-62 melanoma): 11 µM
TGI (UACC-62 melanoma): 26.1 µM
GI50 (HCT-15 colon): 11.6 µM
TGI (HCT-15 colon): 24.4 µM
GI50 (HS 578T breast): 6.44 µM
TGI (HS 578T breast): 33.6 µM
GI50 (ACHN renal): 14.9 µM
TGI (ACHN renal): 28.8 µM
GI50 (SK-OV-3 ovarian): 4.99 µM
TGI (SK-OV-3 ovarian): 24.9 µM
GI50 (SN12C renal): 14.9 µM
TGI (SN12C renal): 33.1 µM
GI50 (NCI-H522 lung): 14.3 µM
TGI (NCI-H522 lung): 31.8 µM
GI50 (K-562 leukemia): 2.14 µM
TGI (K-562 leukemia): 14.2 µM
